Counter-ions that a name gives are not always drawn. Like-named read-outs stand apart in the source and are kept apart here.
Columns and labels:
MMP-1 [1] = molecular target: T1, MMP-1 (Homo sapiens, UniProt P03956); settings: read-out: MMP-1 IC50
T1 sequence (P03956 100-469): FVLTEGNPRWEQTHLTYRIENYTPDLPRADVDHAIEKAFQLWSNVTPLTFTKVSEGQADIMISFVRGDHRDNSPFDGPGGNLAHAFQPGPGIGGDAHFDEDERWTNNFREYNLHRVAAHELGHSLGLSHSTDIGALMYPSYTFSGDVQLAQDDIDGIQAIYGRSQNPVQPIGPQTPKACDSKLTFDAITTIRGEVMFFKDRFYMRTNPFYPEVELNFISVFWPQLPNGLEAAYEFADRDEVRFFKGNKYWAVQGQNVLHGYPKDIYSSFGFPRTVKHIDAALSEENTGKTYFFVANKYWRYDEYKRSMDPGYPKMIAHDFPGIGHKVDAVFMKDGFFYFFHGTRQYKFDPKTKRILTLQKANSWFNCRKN

TACE = TACE (Homo sapiens, UniProt P78536); assay: TACE inhibition (fluorescent peptidyl substrate); type: biochemical; settings: for inhibition at 1 µM: at 1 μM concentration, read-out: TACE % inhibition
TACE, sequence (P78536 215-824): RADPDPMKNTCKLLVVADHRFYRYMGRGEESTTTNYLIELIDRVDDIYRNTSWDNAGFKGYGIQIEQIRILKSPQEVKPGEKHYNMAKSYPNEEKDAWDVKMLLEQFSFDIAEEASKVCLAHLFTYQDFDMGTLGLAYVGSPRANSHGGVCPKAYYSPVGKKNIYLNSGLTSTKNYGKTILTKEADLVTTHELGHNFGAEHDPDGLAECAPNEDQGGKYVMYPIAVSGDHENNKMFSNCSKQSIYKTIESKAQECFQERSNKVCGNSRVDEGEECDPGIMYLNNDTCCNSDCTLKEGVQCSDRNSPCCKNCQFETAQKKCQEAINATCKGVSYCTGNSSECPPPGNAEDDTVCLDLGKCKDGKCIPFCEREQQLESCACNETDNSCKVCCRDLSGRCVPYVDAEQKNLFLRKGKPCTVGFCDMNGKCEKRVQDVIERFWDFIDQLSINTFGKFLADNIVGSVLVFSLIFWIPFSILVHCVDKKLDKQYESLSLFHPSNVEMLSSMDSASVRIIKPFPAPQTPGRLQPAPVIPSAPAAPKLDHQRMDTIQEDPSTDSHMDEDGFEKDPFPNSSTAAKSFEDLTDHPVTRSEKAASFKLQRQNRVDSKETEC
Experimental: Using 96-well black microtiter plates, each well receives a solution composed of 10 μL TACE (final concentration 1 μg/mL), 70 μL Tris buffer, pH 7.4 containing 10% glycerol (final concentration 10 mM), and 10 μL of test compound solution in DMSO (final concentration 1 μl M, DMSO concentration <1%) and incubated for 10 minutes at room temperature.
The reaction is read (excitation 340 nm, emission 420 nm) for 10 min. and the increase in fluorescence over time is plotted as a linear line. The slope of the line is calculated and represents the reaction rate.
The linearity of the reaction rate is confirmed (r^2>0.85). The mean (x±sem) of the control rate is calculated and compared for statistical significance (p<0.05) with drug-treated rates using Dunnett's multiple comparison test.

MMP-9 = MMP-9 (Homo sapiens, UniProt P14780); assay: MMP-9 inhibition (thiopeptide or fluorescent peptide substrate); type: biochemical; settings: read-out: MMP-9 IC50
MMP-9, sequence (P14780 94-707): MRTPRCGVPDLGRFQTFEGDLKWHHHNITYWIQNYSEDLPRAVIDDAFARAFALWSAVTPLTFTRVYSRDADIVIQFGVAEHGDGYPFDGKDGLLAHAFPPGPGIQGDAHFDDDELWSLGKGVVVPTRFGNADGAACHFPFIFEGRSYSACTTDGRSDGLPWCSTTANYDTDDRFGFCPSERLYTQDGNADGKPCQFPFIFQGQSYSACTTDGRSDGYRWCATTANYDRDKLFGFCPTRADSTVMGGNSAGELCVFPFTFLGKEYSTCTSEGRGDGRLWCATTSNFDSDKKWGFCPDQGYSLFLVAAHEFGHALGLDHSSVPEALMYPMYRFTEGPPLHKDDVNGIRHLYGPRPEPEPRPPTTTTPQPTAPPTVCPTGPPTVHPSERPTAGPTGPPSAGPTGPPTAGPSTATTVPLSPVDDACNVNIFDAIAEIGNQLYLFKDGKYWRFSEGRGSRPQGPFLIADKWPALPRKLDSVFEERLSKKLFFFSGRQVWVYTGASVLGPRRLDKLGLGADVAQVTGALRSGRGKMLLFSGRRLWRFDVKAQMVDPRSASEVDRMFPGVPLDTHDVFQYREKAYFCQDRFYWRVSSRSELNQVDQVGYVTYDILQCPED
Experimental: (§1) The enzyme activity is measured by the rate of the color increase. The thiopeptide substrate is made up fresh as a 20 mM stock in 100% DMSO and the DTNB is dissolved in 100% DMSO as a 100 mM stock and stored in the dark at room temperature. Both the substrate and DTNB are diluted together to 1 mM with substrate buffer (50 mM HEPES pH 7.5, 5 mM CaCl2) before use. The stock of enzyme is diluted with buffer (50 mM HEPES, pH 7.5, 5 mM CaCl2, 0.02% Brij) to the desired final concentration.
(§2) Alternatively, a fluorescent peptide substrate is used. In this test procedure, the peptide substrate contains a fluorescent group and a quenching group. Upon cleavage of the substrate by an MMP, the fluorescence that is generated is quantitated on the fluorescence plate reader. The assay is run in HCBC assay buffer (50 mM HEPES, pH 7.0, 5 mM Ca^+2, 0.02% Brij, 0.5% Cysteine), with human recombinant MMP-1, MMP-9, or MMP-13. The substrate is dissolved in methanol and stored frozen in 1 mM aliquots. For the assay, substrate and enzymes are diluted in HCBC buffer to the desired concentrations. Compounds are added to the 96 well plate containing enzyme and the reaction is started by the addition of substrate.
(§3) For either the thiopeptide or fluorescent peptide test procedures, the slope of the line is calculated and represents the reaction rate. The linearity of the reaction rate is confirmed (r^2>0.85). The mean (x±sem) of the control rate is calculated and compared for statistical significance (p<0.05) with drug-treated rates using Dunnett's multiple comparison test.

MMP-13 [2] = molecular target: T2, MMP-13 (Homo sapiens, UniProt P45452); assay: In vivo MMP inhibition test procedure (implanted dialysis tubing containing enzyme); set-up: species or system rat or mouse; settings: p.o. vs MMP-13
Experimental: A 2 cm piece of dialysis tubing (molecular weight cut-off 12-14,000, 10 mm flat width) containing matrix metalloproteinase enzyme (stromelysin, collagenase or gelatinase in 0.5 mL of buffer) is implanted either ip or sc (in the back) of a rat (Sprague-Dawley, 150-200 g) or mouse (CD-1, 25-50 g) under anesthesia. Drugs are administered PO, IP, SC or IV through a canula in the jugular vein. […] Contents of the dialysis tubing is collected and enzyme activity assayed.
Enzyme reaction rates for each dialysis tube are calculated. Tubes from at least 3 different animals are used to calculate the mean±sem. Statistical significance (p<0.05) of vehicle-treated animals versus drug-treated animals is determined by analysis of variance.

MMP-1 [3] = molecular target: T1, MMP-1; assay: biochemical; settings: for IC50: MMP-1 IC50
MMP-13 [4] = molecular target: T2, MMP-13; assay: MMP-13 inhibition (thiopeptide or fluorescent peptide substrate); type: biochemical
Experimental: as §1, §2, §3

Q: With “4-[Methyl-(4-methoxy-benzenesulfonyl)-amino]-6-phenylethyl-quinoline-3-carboxylic acid hydroxyamide [Example 35]” as the compound, how does the IC50 (MMP-1 [1]) read?
A: 0.234 µM

Q: And the IC50 (TACE)?
A: 0.049 µM

Q: With `COc1ccc(S(=O)(=O)N(Cc2cccnc2)c2c(C(=O)NO)cnc3onc(C)c23)cc1` (as salt: salt) [Example 87, 4-[(4-Methoxybenzenesulfonyl)pyridin-3-ylmethylamino]-3-methylisoxazolo[5,4-b]pyridine-5-carboxylic Acid, Hydroxyamide] as the compound, how does the melting point read?
A: 212 to 215 °C

Q: For “4-{[4-(4-Chlorophenyloxy)benzenesulfonyl]methylamino}-1,3-dimethyl-1H-pyrazolo[3,4-b]pyridine-5-carboxylic Acid, Hydroxyamide [Example 89]”, which IC50 (MMP-1 [1]) is on record?
A: 0.116 µM

Q: What about the IC50 (TACE) of the same compound?
A: 0.356 ± 0.015 µM

Q: What about the IC50 (MMP-9) of the same compound?
A: 0.0008 µM

Q: What about the “in-vivo MMP % inhibition” value (MMP-13 [2]; dose 25 mg/kg) of the same compound?
A: 6% (25)

Q: What does the source list for `Cc1nsc2ncc(C(=O)NO)c(N(C)S(=O)(=O)c3ccc(Oc4ccncc4)cc3)c12` [Example 92, 4-{Methyl-[4-(4-pyridinyloxy)benzenesulfonyl]amino}-3-methylisothiazolo[5,4-b]pyridine-5-carboxylic Acid, Hydroxyamide]?
A: melting point: 146 °C (dec.); IC50 (TACE): > 1.64 µM; inhibition at 10 µM (MMP-1 [3]; read-out: MMP-1 % inhibition): 60.2%; IC50 (MMP-13 [4]): 0.0061 µM; IC50 (MMP-9): 0.012 µM; in-vivo MMP % inhibition (MMP-13 [2]; dose 25 mg/kg): 30% (25)

Q: With `Cc1noc2ncc(C(=O)NO)c(N(C)S(=O)(=O)c3ccc(Oc4ccncc4)cc3)c12` (as salt: hydrochloride) [Example 94, 4-{Methyl-[4-(4-pyridinyloxy)benzenesulfonyl]amino}-3-methylisoxazolo[5,4-b]pyridine-5-carboxylic acid, Hydroxyamide,] as the compound, how does the melting point read?
A: 170 °C (dec.)

Q: With `COc1ccc(S(=O)(=O)N(Cc2cccnc2)c2c(C(=O)NO)cnc3snc(C)c23)cc1` (as salt: salt) [Example 86, 4-[(4-Methoxybenzenesulfonyl)pyridin-3-ylmethylamino]-3-methylisothiazolo[5,4-b]pyridine-5-carboxylic Acid, Hydroxyamide] as the compound, how does the melting point read?
A: 224 °C (dec.)

Q: Which IC50 (MMP-1 [1]) does the source give for “4-{Methyl-(4-(pyridin-4-yloxy)-benzenesulfonyl]-amino}-6-iodo-quinoline-3-carboxylic acid hydroxyamide hydrochloride [Example 33]” here?
A: 1.01 µM

Q: Which melting point does the source give for `CN(c1c(C(=O)NO)cnc2c1c(-c1ccccc1)nn2C)S(=O)(=O)c1ccc(Oc2ccncc2)cc1` (as salt: hydrochloride) [Example 93, 4-{Methyl-[4-(4-pyridinyloxy)benzenesulfonyl]amino}-1-methyl-3-phenyl-1H-pyrazolo[3,4-b]pyridine-5-carboxylic acid, Hydroxyamide] here?
A: 195 °C (dec.)

Q: With `COc1ccc(S(=O)(=O)N(Cc2cccnc2)c2c(C(=O)NO)cnc3c2c(C)nn3C)cc1` [Example 60, 4-[(4-Methoxybenzenesulfonyl)pyridin-3-ylmethylamino]-1,3-dimethyl-1H-pyrazolo[3,4-b]pyridine-5-carboxylic acid, hydroxyamide] as the compound, how does the melting point read?
A: 196 to 198 °C

Q: For `Cc1noc2ncc(C(=O)NO)c(N(C)S(=O)(=O)c3ccc(Oc4ccncc4)cc3)c12` [Example 94, 4-{Methyl-[4-(4-pyridinyloxy)benzenesulfonyl]amino}-3-methylisoxazolo[5,4-b]pyridine-5-carboxylic acid, Hydroxyamide,], which inhibition at 1 µM (TACE) is on record?
A: 41.6%

Q: And the IC50 (MMP-1 [3])?
A: 2.55 µM

Q: What about the IC50 (MMP-13 [4]) of the same compound?
A: 0.0032 µM

Q: And the IC50 (MMP-9)?
A: 0.003 µM

Q: What about the “in-vivo MMP % inhibition” value (MMP-13 [2]; dose 25 mg/kg) of the same compound?
A: 12% (25)

Q: With `COc1ccc(S(=O)(=O)N(Cc2ccccc2)c2c(C(=O)NO)cnc3c2c(C)nn3C)cc1` [Example 52, 4-[Benzyl-(4-methoxybenzenesulfonyl)amino]-1,3-dimethyl-1H-pyrazolo[3,4-b]pyridine-5-carboxylic acid, hydroxyamide] as the compound, how does the IC50 (TACE) read?
A: 0.236 µM

Q: And the IC50 (MMP-1 [3])?
A: 0.045 µM

Q: What about the IC50 (MMP-13 [4]) of the same compound?
A: 0.0014 µM

Q: What about the IC50 (MMP-9) of the same compound?
A: 0.0024 µM

Q: And the “in-vivo MMP % inhibition” value (MMP-13 [2]; dose 100 mg/kg)?
A: 74% (100)

Q: For `Cc1nn(C)c2ncc(C(=O)NO)c(N(C)S(=O)(=O)c3ccc(Oc4ccncc4)cc3)c12` (as salt: hydrochloride) [91(HC1), 4-{Methyl-[4-(4-pyridinyloxy)benzenesulfonyl]amino}-1,3-dimethyl-1H-pyrazolo[3,4-b]pyridine-5-carboxylic Acid, Hydroxyamide], which melting point is on record?
A: 147 °C (dec.)

Q: With `COc1ccc(S(=O)(=O)N(Cc2cccnc2)c2c(C(=O)NO)cnc3cc(C(F)(F)F)ccc23)cc1` [Example 16, 4-[(4-Methoxybenzenesulfonyl)-pyridin-3-ylmethylamino]-7-trifluoromethyl-quinoline-3-carboxylic acid hydroxyamide] as the compound, how does the inhibition at 1 µM (TACE) read?
A: 36%

Q: What about the IC50 (MMP-13 [4]) of the same compound?
A: 0.003 µM

Q: What about the IC50 (MMP-9) of the same compound?
A: 0.006 µM

Q: And the “in-vivo MMP % inhibition” value (MMP-13 [2]; dose 100 mg/kg)?
A: 64% (100)

Q: Which IC50 (MMP-1 [1]) does the source give for “4-[(4-Methoxy-benzenesulfonyl)-pyridin-3-ylmethyl-amino]-8-thiophen-2-yl-quinoline-3-carboxylic acid hydroxyamide [Example 41]” here?
A: 0.136 µM

Q: For `COc1ccc(S(=O)(=O)N(Cc2ccccc2)c2c(C(=O)NO)cnc3c2c(C)nn3-c2ccccc2)cc1` [Example 66, 4-[Benzyl-(4-methoxybenzenesulfonyl)amino]-1-phenyl-3-methyl-1H-pyrazolo[3,4b]pyridine-5-carboxylic acid, hydroxyamide], which IC50 (MMP-1 [3]) is on record?
A: 0.512 µM

Q: What about the IC50 (MMP-13 [4]) of the same compound?
A: 0.00027 µM

Q: What about the IC50 (MMP-9) of the same compound?
A: 0.00081 µM

Q: And the “in-vivo MMP % inhibition” value (MMP-13 [2]; dose 25 mg/kg)?
A: 5% (25)

Q: With “4-{[4-(4-Chlorophenyloxy)benzenesulfonyl]methylamino}-3-methylisothiazolo[5,4-b]pyridine-5-carboxylic Acid Hydroxyamide [Example 90]” as the compound, how does the “in-vivo MMP % inhibition” value (MMP-13 [2]; dose 25 mg/kg) read?
A: 39% (25)

Q: With `COc1ccc(S(=O)(=O)N(Cc2cccnc2)c2c(C(=O)NO)cnc3c(OC)cccc23)cc1` [Example 36, 4-[(4-Methoxy-benzenesulfonyl)-pyridin-3-ylmethyl-amino]-8-methoxy-quinoline-3-carboxylic acid hydroxyamide] as the compound, how does the IC50 (TACE) read?
A: 0.226 µM

Q: What about the IC50 (MMP-13 [4]) of the same compound?
A: 0.001 µM

Q: What about the IC50 (MMP-9) of the same compound?
A: 0.002 µM

Q: And the “in-vivo MMP % inhibition” value (MMP-13 [2]; dose 50 mg/kg)?
A: 81% (50)

Q: Which IC50 (TACE) does the source give for `COc1ccc(S(=O)(=O)N(Cc2ccccc2)c2c(C(=O)NO)cnc3c(C(F)(F)F)cccc23)cc1` [Example 12, 4-[Benzyl-(4-methoxy-benzenesulfonyl)-amino]-8-trifluoromethyl-quinoline-3-carboxylic acid hydroxyamide] here?
A: 0.19 µM

Q: What about the IC50 (MMP-1 [3]) of the same compound?
A: 0.933 µM

Q: And the IC50 (MMP-13 [4])?
A: 0.001 µM

Q: What about the IC50 (MMP-9) of the same compound?
A: 0.002 µM

Q: What does the source list for `CN(c1c(C(=O)NO)cnc2c1c(-c1ccccc1)nn2C)S(=O)(=O)c1ccc(Oc2ccncc2)cc1` [Example 93, 4-{Methyl-[4-(4-pyridinyloxy)benzenesulfonyl]amino}-1-methyl-3-phenyl-1H-pyrazolo[3,4-b]pyridine-5-carboxylic acid, Hydroxyamide]?
A: inhibition at 1 µM (TACE): 34.9%; IC50 (MMP-1 [3]): 8.79 µM; IC50 (MMP-13 [4]): 0.0039 µM; IC50 (MMP-9): 0.0101 µM; in-vivo MMP % inhibition (MMP-13 [2]; dose 25 mg/kg): 49% (25)

Q: Which inhibition at 1 µM (TACE) does the source give for `COc1ccc(S(=O)(=O)N(Cc2cccnc2)c2c(C(=O)NO)cnc3cc(C)nn23)cc1` [Example 88, 7-[(4-Methoxybenzenesulfonyl)pyridin-3-ylmethylamino]-2-methylpyrazolo[1,5-a]pyrimidine-6-carboxylic Acid, Hydroxyamide] here?
A: 40.5%

Q: And the IC50 (MMP-1 [3])?
A: 0.643 µM

Q: What about the IC50 (MMP-13 [4]) of the same compound?
A: 0.0187 µM

Q: What about the IC50 (MMP-9) of the same compound?
A: 0.0104 µM

Q: With `COc1ccc(S(=O)(=O)N(Cc2cccnc2)c2c(C(=O)NO)cnc3c(Br)cccc23)cc1` [Example 37, 4-[(4-Methoxy-benzenesulfonyl)-pyridin-3-ylmethyl-amino]-8-bromo-quinoline-3-carboxylic acid hydroxyamide] as the compound, how does the IC50 (TACE) read?
A: 0.124 µM

Q: And the IC50 (MMP-1 [3])?
A: 0.065 µM

Q: And the IC50 (MMP-13 [4])?
A: 0.001 µM

Q: And the IC50 (MMP-9)?
A: 0.002 µM

Q: For `COc1ccc(S(=O)(=O)N(Cc2cccnc2)c2c(C(=O)NO)cnc3cc(C)nn23)cc1` (as salt: salt) [Example 88, 7-[(4-Methoxybenzenesulfonyl)pyridin-3-ylmethylamino]-2-methylpyrazolo[1,5-a]pyrimidine-6-carboxylic Acid, Hydroxyamide], which melting point is on record?
A: 170 °C (dec.)

Reference: US6534491B2, “Preparation and use of ortho-sulfonamido bicyclic heteroaryl hydroxamic acids as matrix metalloproteinase and tace inhibitors” (priority 1996, dated 2003)
